According to article PMC7569237 (Translational Oncology, 2020):

Test: Plasma and tumor levels in MIA PaCa-2 tumor-bearing nude mice
Assay type: in vivo
Settings: MIA PaCa-2-bearing mice, CPT-11 10 mg/kg iv; SN38 = released from CPT-11

Compound | Time within which concentrations rapidly decreased in plasma and tumor [h]
CCc1c2c(nc3ccc(OC(=O)N4CCC(N5CCCCC5)CC4)cc13)-c1cc3c(c(=O)n1C2)COC(=O)[C@]3(O)CC [CPT-11, 7-ethyl-10-[4-(1-piperidino)-1-piperidino]carbonyloxycamptothecin] | ≤ 48
CCc1c2c(nc3ccc(O)cc13)-c1cc3c(c(=O)n1C2)COC(=O)[C@]3(O)CC [SN38, 7-ethyl-10-hydroxycamptothecin] | ≤ 48
